According to patent US10822322B2 (OCEANS LTD., priority 2016, dated 2020):

What was measured:
[1] = test system: SKOV3 (ovarian adenocarcinoma); experiment: CIMA assay (tetrazolium reduction, cell viability), SKOV3; format: cell-based, human
Description: (§1) Stock solutions of the extracts were prepared in dimethylsulfoxide (DMSO) at 10 mg/mL and stored in 200 μl aliquots at −20° C. until analysis. This preparation ensured that the DMSO delivered to cells in culture never exceeded 1%.
(§2) Prepared extracts were assessed following chronic exposure conditions in which cells were seeded at 2×10^3 cells/well (96 wells-plate) and incubated with test compounds for 72 h. Each compound was evaluated over a range of concentrations (0, 10, 25, 50 or 100 μg/ml). Cell proliferation was initially assessed using a standard colorimetric indicator of metabolic activity (CIMA) assay. In this assay, tetrazole reduction was evaluated as a measure of metabolic function that evaluates mitochondrial activity to determine the extent of cell proliferation within a culture. This assay is based on the reduction of yellow tetrazolium salt to purple formazan by mitochondrial reductases enzyme in viable cells, resulting in a color changed that confers a change in absorbance. Six human cell lines were selected for primary evaluation: U373 (glioblastoma-astrocytoma), A549 (lung carcinoma), THP-1 (acute monocytic leukemia), MCF7 (mammary gland adenocarcinoma), SKOV3 (ovarian adenocarcinoma), and CCD1079SK (fibroblast, noncancerous but proliferating) (see FIG. 2 and Table 2). Table 3 expresses the IC50 for each extract.
(§3) These sub-fractions were again subjected to the bioassay evaluation presented above. Results are expressed in Table 8 as % viability (means±standard deviation of three replicates), with LD50/IC50 values in Table 9. […] The maximum DMSO concentration was 1% at 100 μg/ml with 5% SDS used as a known toxic inducer.

[2] = test system: MCF7 (mammary gland adenocarcinoma); experiment: CIMA assay (tetrazolium reduction, cell viability), MCF7; format: cell-based, human
Description: as §1
as §2, with “extract. […]” for “extract.”

[3] = test system: U373 (glioblastoma-astrocytoma); experiment: CIMA assay (tetrazolium reduction, cell viability), U373; format: cell-based, human
Description: as §1, §2, §3

[4] = test system: CCD1079SK (fibroblast, noncancerous but proliferating); experiment: CIMA assay (tetrazolium reduction, cell viability), CCD1079SK; format: cell-based, human
Description: as §1, §2, §3

[5] = test system: PC3; experiment: CIMA assay (tetrazolium reduction, cell viability), PC3; format: cell-based
[6] = test system: A549 (lung carcinoma); experiment: CIMA assay (tetrazolium reduction, cell viability), A549; format: cell-based, human
Description: as §1, §2, §3

[7] = test system: THP-1 (acute monocytic leukemia); experiment: CIMA assay (tetrazolium reduction, cell viability), THP-1; format: cell-based, human
Description: as §1, §2, §3

[8] = test system: MDA-MB; experiment: CIMA assay (cell viability), MDA-MB; format: cell-based
[9] = CIMA assay (tetrazolium reduction, cell viability), CCD1079SK; format: cell-based, human; settings: human
Description: as §1, §2, §3

[10] = Homo sapiens, SK-OV-3, read-out: average cell viability
[11] = Homo sapiens, U373 MG, read-out: average cell viability
[12] = Homo sapiens, PC-3, read-out: average cell viability
[13] = Homo sapiens, A549, read-out: average cell viability
[14] = Homo sapiens, THP-1, read-out: average cell viability

## CCCCCCCCCCCCOS(=O)(=O)[O-].[Na+] [SDS 5%, reference compound]
[1]
  % viability AVG: 90.7%
[2]
  % viability AVG: 93.7%
[3]
  % viability AVG: 78.5%
[4]
  % viability AVG: 87.9%
[5]
  % viability AVG: 94.4%
  cell viability AVG: 77.3%
[6]
  % viability AVG: 66.2%
  cell viability AVG: 68.7%
[7]
  % viability AVG: 39.9%

## CCCCCC(O)C(O)/C=C/C1CCCCCCCC(=O)O1 (stereo not drawn) [compound 31-34-5, 12,13-dihydroxy-10-octadecen-9-olide]
[1]; [10]
  viability at 1 µg/mL: 97%
  viability at 10 µg/mL: 97%
  viability at 50 µg/mL: 94%
  viability at 100 µg/mL: 85%
[8]; 10 ug/mL
  fold change viability (AVG): 1.05
[8]; 50 ug/mL
  fold change viability (AVG): 0.72
[8]; 1 Ug/mL
  viability at 1 µg/mL: 101%
[8]; 10 Ug/mL
  viability at 10 µg/mL: 96%
[8]; 50 Ug/mL
  viability at 50 µg/mL: 66%
[8]; 100 Ug/mL
  viability at 100 µg/mL: 20%
[3]; [11]
  viability at 1 µg/mL: 90%
  viability at 10 µg/mL: 85%
  viability at 50 µg/mL: 68%
  viability at 100 µg/mL: 3%
[9]
  viability at 72 h, 1 µg/mL: 91%
  viability at 72 h, 10 µg/mL: 84%
  viability at 72 h, 50 µg/mL: 90%
  viability at 72 h, 100 µg/mL: 17%
[5]; [12]
  viability at 1 µg/mL: 100%
  viability at 10 µg/mL: 93%
  viability at 50 µg/mL: 97%
  viability at 100 µg/mL: 19%
[6]; [13]
  viability at 1 µg/mL: 95%
  viability at 10 µg/mL: 93%
  viability at 50 µg/mL: 92%
  viability at 100 µg/mL: 61%
[7]; [14]
  viability at 1 µg/mL: 96%
  viability at 10 µg/mL: 84%
  viability at 50 µg/mL: 68%
  viability at 100 µg/mL: 44%
